Key:
[1] = tested on: conditioned avoidance responding; assay: Conditioned avoidance, shelf-jump response; format: in vivo, rat (male CD, Charles River); conditions: Rattus norvegicus, ip; single dose 40 mg/kg
Text: (§1) The antipsychotic properties of the compounds of this invention were established by standard pharmacologically accepted procedures involving conditioned avoidance studies in which trained male CD rats (Charles River), 400-450 g. body weight are exposed to a fifteen second warning tone (conditioned stimulus) continued for an additional fifteen seconds accompanied by electric shock. The rat can avoid the electric shock by jumping to an exposed shelf (shelf-jump response). A response during the initial warning tone is considered an avoidance response, while a response during shock delivery is considered as escape response. The shelf-jump response test procedure follows that of Herman et al., Comm. in Psychopharm., 3, pp. 165-171 (1979). The compounds of this invention were tested at a single dose (40 mg./kg. i.p.) in this procedure and were rated relative to their inhibition of conditioned avoidance responding. A similar test procedure (Discrete Trial) in which a lever press was substituted for a shelf-jump was used to establish the oral (p.o.) activity of the test compounds. Orally active compounds were tested over a full dose range and the Avoidance Block activities reported as "AB50 's" (mg./kg.).

[2] = tested on: conditioned avoidance responding; assay: Conditioned avoidance, Discrete Trial (lever press); format: in vivo, rat (male CD, Charles River); conditions: for Conditioned Avoidance, Discrete Trial AB50: p.o.; for ED50: Rattus norvegicus, po, read-out: Conditioned Avoidance, Discrete Trial AB50
Text: as §1

[3] = tested on: apomorphine-induced stereotyped behavior and climbing; assay: Antagonism of apomorphine-induced stereotyped behavior and climbing; format: in vivo, mouse (CF-1, Charles River); conditions: apomorphine 1 mg/kg s.c.; for Apomorphine Antagonism, Stereotypy ED50: p.o.; for ED50: Mus musculus, po, read-out: Apomorphine Antagonism, Climbing ED50
Description: Readings are repeated every five minutes during a thirty minute test session. […] The ratio of the ED50 for stereotyped behavior of the ED50 for climbing is calculated.

D-2 dopamine receptor = target: T1, D-2 dopamine receptor (Rattus norvegicus, UniProt P61169); assay: [^3 H] Spiroperidol binding inhibition (D-2 dopamine receptor, homogenized limbic brain tissue); conditions: 1 μM
T1 construct: from tissue; host or cells: homogenized limbic brain tissue
Text: The results of this testing with compounds representative of the invention whose production is exemplified, infra, are as follows: […]

[4] = target: T2, 5-HT1A serotonin receptor (Rattus norvegicus, UniProt P19327); assay: Inhibition of [^3 H] 8-OH DPAT binding
T2 construct: from tissue
T2 sequence (P19327 1-422): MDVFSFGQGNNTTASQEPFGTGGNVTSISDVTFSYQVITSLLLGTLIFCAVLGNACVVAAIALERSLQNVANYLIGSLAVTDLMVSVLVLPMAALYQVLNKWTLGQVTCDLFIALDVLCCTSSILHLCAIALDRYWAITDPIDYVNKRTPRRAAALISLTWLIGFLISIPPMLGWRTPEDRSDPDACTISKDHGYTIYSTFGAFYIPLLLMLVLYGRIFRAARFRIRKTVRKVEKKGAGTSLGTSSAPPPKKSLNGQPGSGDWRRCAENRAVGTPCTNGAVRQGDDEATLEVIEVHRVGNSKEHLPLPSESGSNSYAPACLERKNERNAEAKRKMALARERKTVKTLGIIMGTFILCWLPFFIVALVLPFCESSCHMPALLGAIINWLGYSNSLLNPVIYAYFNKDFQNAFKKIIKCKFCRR
Description: 8-OH DPAT (dipropylaminotetralin) from the 5-HT1A serotonin receptor by the procedure of Hall et al., J. Neurochem.

T1 sequence (P61169 whole entry): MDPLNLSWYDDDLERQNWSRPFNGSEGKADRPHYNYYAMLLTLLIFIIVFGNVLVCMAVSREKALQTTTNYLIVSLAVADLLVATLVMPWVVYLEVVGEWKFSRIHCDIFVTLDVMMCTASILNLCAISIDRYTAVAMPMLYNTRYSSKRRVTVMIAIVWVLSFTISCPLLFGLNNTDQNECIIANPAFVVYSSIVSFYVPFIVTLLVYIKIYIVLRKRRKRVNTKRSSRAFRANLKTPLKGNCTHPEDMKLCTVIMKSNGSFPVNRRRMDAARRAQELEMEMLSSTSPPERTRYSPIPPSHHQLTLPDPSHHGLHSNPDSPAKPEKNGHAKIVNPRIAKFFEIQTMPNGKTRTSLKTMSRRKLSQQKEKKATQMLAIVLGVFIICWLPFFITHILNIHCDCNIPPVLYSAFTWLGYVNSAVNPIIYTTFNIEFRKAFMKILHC

## O=C1C2CCCC(O2)C(=O)N1CCCCN1CCN(c2cncc(Cl)n2)CC1 [Example 15, 3-[4-[4-(6-Chloro-2-pyrazinyl)-1-piperazinyl]butyl]-9-oxa-3-azabicyclo[3.3.1]nonane-2,4-dione]
[1]
  inhibition in vivo at 40 mg/kg: ~80%
[2]
  Conditioned Avoidance, Discrete Trial AB50: weak
[3]
  Apomorphine Antagonism, Stereotypy ED50: inactive
D-2 dopamine receptor
  inhibition at 1 µM: 21%
[4]
  inhibition at 1 µM: 63%

## O=C1C2CCC(C2)C(=O)N1CCCCN1CCN(c2ccc3ccccc3n2)CC1 [Example 9, 3-[4-[4-(2-Quinolyl)-1-piperazinyl]butyl]-3-azabicyclo[3.2.1]octane-2,4-dione]
[1]
  inhibition in vivo at 40 mg/kg: > 20%
[2]
  ED50: 98.2 mg/kg
[3]
  ED50: 40.9 mg/kg
  Apomorphine Antagonism, Stereotypy ED50: inactive
D-2 dopamine receptor
  inhibition at 1 µM: 31%
[4]
  Ki: 60 nM

## CC1(C)C2CCC1C(=O)N(CCCCN1CCN(c3cncc(Cl)n3)CC1)C2=O [Example 18, 3-[4-[4-(6-Chloro-2-pyrazinyl)-1-piperazinyl]butyl]-8,8-dimethyl-3-azabicyclo[3.2.1]octane-2,4-dione]
[1]
  inhibition in vivo at 40 mg/kg: > 20%
[2]
  Conditioned Avoidance, Discrete Trial AB50: inactive
[3]
  ED50: 43 mg/kg
  Apomorphine Antagonism, Stereotypy ED50: inactive
D-2 dopamine receptor
  inhibition at 1 µM: 21%
[4]
  inhibition at 1 µM: 76%

## O=C1C2CCCC(C2)C(=O)N1CCCCN1CCN(c2cncc(Cl)n2)CC1 [Example 7, 2-[4-[4-(6-Chloro-2-pyrazinyl)-1-piperazinyl]butyl]-3-azabicyclo[3.3.1]nonane-2,4-dione]
[1]
  inhibition in vivo at 40 mg/kg: ~80%
[2]
  ED50: 34.1 mg/kg
[3]
  Apomorphine Antagonism, Stereotypy ED50: inactive
D-2 dopamine receptor
  inhibition at 1 µM: 21%
[4]
  Ki: 31 nM

— patent US4748240A, “Psychotropic bicyclic imides” (American Home Products Corporation, priority 1987, dated 1988)
